{
  "source": "patent US20070060617A1",
  "about": "“2-Methoxy-5(5-trifluoromethyl-tetrazol-1-yl-benzyl)-2s-phenyl-piperdin-3s-yl)-amine for the treatment of social phobia” (priority 2004, published 2007)",
  "test_system": "patients suffering from social phobia (Social Anxiety Disorder)",
  "test": "double-blind, placebo-controlled study in patients suffering from social phobia (self-report questionnaires, state anxiety measures, verbal performance, PET)",
  "type": "in vivo, human",
  "conditions": "NK1-antagonist group, daily oral dose of 5 mg, administered four weeks",
  "description": "The first study was a double-blind, placebo-controlled study of the effect of [2-methoxy-5-(5-trifluoromethyl-tetrazol-1-yl-benzyl)]-(2-phenyl-piperidin-3-yl)-amine dihydrochloride in patients suffering from social phobia (otherwise known as Social Anxiety Disorder). Thirty six patients aged between 19 and 48 meeting the DSM-IV criteria for social phobia (as set out in Diagnostic and Statistical Manual of Mental Disorders, 4th Edition, published by the American Psychiatric Association) were selected. […] The effect of [2-methoxy-5(5-trifluoromethyl-tetrazol-1-yl-benzyl)]-(2-phenyl-piperidin-3-yl)-amine dihydrochloride on anxiety symptoms and brain activity in patients diagnosed with social phobia was evaluated using self-report questionnaires (the Social Phobia Scale (SPS), the Social Interaction Anxiety Scale (SIAS), the Personal Report on Confidence as a Speaker (PRCS), the Social Phobia Screening Questionnaire (SPSQ), the Sheehan Disability Inventory (SDI), self-report versions of the Liebowitz Social Anxiety Scale (LSAS-SR) and the Global Assessment of Functioning (GAF) scale), state anxiety measures (the Speilberger state-anxiety inventory (STAI-S), subjective ratings of fear and distress on 0-100 (min-max) scales and heart rate), verbal performance (comparing the number of spoken syllables during the first ten seconds of each videotaped speech) and PET assessments.",
  "note": "Counter-ions that a name gives are not always drawn.",
  "data": [
    {"smiles": "COc1ccc(-n2nnnc2C(F)(F)F)cc1CN[C@H]1CCCN[C@H]1c1ccccc1", "note": "[[2-methoxy-5-(5-trifluoromethyl-tetrazol-1-yl-benzyl)]-(2-phenyl-piperidin-3-yl)-amine dihydrochloride]", "values": [
      {"measurement": "effect compared with placebo", "result": "generally superior to placebo"},
      {"measurement": "improvement of patients with social phobia after short-term treatment", "result": "significantly improved"}
    ]}
  ]
}
